What is called solubility is how much of the substance goes into solution per volume. Low readings indicate little dissolved substance, high ones much dissolved substance.

Consider 3 compounds from US20020192286A1, “Biodegradable triblock copolymers as solubilizing agents for drugs and method of use thereof” (Macromed, Incorporated, priority 2001, published 2002).

The conditions of series [1]: cited from earlier work.
A short description of series [2]: Behaviour of the polymer solution in aqueous liquid at 35-42° C. It counts as physicochemical. The settings on record: copolymer with drug; between at least 35-42° C. As for the experimental part: PEG (Mw=1450; 476.2 g) was dried under vacuum (1 mmHg) at 130° C. for 5 hours. D,L-Lactide (412.9 grams) and glycolide (110.9 grams) were added to the flask and heated to 145° C. to afford a homogenous solution. Polymerization was initiated by the addition of 250 mg stannous octoate to the reaction mixture. After maintaining the reaction for five hours at 145° C., the reaction was stopped and the flask was cooled to room temperature. Unreacted lactide and glycolide were removed by vacuum distillation. […] The copolymer was purified twice by dissolving in water to afford a 25% solution, and letting the solution stir overnight at room temperature followed by elevating the solution temperature to 70° C. to precipitate the polymer. Excess water was removed by freeze drying. […] The GPC was performed on two Phenogel columns (300×7.8), 500 Å, and a mixed bed, connected in series. Mobile phase was tetrahydrofuran. Calibration was with PEG standards. Detection was by refractive index.

Series [3] can be described thus: Solubility of amphotericin B in 23 wt % triblock copolymer solution. It is filed as physicochemical. The method, then:
Triblock copolymer of Example 2 (entry number 1) was used. The drug was mixed with the copolymer solution (23 wt % copolymer in water). The mixture was allowed to stand for 30 minutes before filtration.

The nature of series [4]: physchem. As for the experimental part: Triblock copolymers of Example 2 were used. The neat polymer and the drug were mixed and gently heated (ca. 50° C.) to completely dissolve the drug. Water was added to the mixture to afford a 23% by weight aqueous solution of the triblock copolymers. The solution was allowed to stand for 30 minutes before filtration (0.2 μm pore size filter).

The nature of series [5]: physchem. The method, then:
Polymer solutions containing 23% by weight of the copolymer were prepared in water, and paclitaxel was added to the solution and the mixture was stirred for approximately 20 minutes.
This is another data set of the same source.

Molecules are shown by their SMILES. Values after ≈ are worked out from the molar mass of the structure shown.

With `C[C@@H]1[C@H](O)[C@@H](C)/C=C/C=C/C=C/C=C/C=C/C=C/C=C/[C@H](O[C@@H]2O[C@H](C)[C@@H](O)[C@H](N)[C@@H]2O)C[C@@H]2O[C@](O)(C[C@@H](O)C[C@@H](O)[C@H](O)CC[C@@H](O)C[C@@H](O)CC(=O)O[C@H]1C)C[C@H](O)[C@H]2C(=O)O` [amphotericin B], the “reported solubility in pure water” value in series [1] was 3 µg/mL. Besides, the “state of polymer solution containing drug when mixed with an aqueous liquid” value (shortened to “state”) in series [2] is given as “remained as a free flowing liquid”. Further, in series [3] (23 wt % copolymer of Example 2 entry number 1 in water, 30 minutes, filtered), the “solubility in the aqueous triblock copolymer solution” value was determined as 150 µg/mL (≈ 162 µM). This compound showed an increase of solubility in series [3] (copolymer solution versus pure water) of 50 fold.

`COC1=CC(=O)C[C@@H](C)[C@]12Oc1c(Cl)c(OC)cc(OC)c1C2=O` [griseofulvin]: in series [2], the “state” value is listed as “remained as free flowing liquids”. Besides, the concentration in solution in series [4] (25 °C, aqueous with cosolvent or surfactant or cyclodextrin, Drug Solubility) (solubility at 30 min) came to 1500 µg/mL (≈ 4250 µM). Also, in series [4] (30 min), the “Drug Solubility” value stood at 1570 µg/mL. Moreover, the solubility in series [4] (water, water solubility) was 10 µg/mL (≈ 28.3 µM).

Regarding `CC(=O)O[C@H]1C(=O)[C@@]2(C)[C@H]([C@H](OC(=O)c3ccccc3)[C@]3(O)C[C@H](OC(=O)[C@H](O)[C@@H](NC(=O)c4ccccc4)c4ccccc4)C(C)=C1C3(C)C)[C@]1(OC(C)=O)CO[C@@H]1C[C@@H]2O` [paclitaxel], the “state” value in series [2] is “remained as a free flowing liquid”. Moreover, the increase of solubility result in series [5] is given as “at least 5000 fold”. Also, the solubility is over 25000 µg/mL in series [5] (aqueous with cosolvent or surfactant or cyclodextrin, thermodynamic from solid) and about 5 µg/mL (≈ 5.86 µM) in series [5] (water).
